The structures appear in SMILES notation.

The subject of this experiment is U2OS_Bim cells. As to the kind of experiment: Apoptosis inhibition assay (Bim-induced apoptosis, cell viability by ATP level). The conditions noted are these: U2OS_Bim cells; means of duplicates; numbering of Tables 4a/4b; read-out: EC50. Type of experiment: cell-based. In a few lines: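 Apoptosis was triggered by doxycycline (0.1 μg/mL) induction of Bim, one hour after compound addition to U2OS_Bim cells. Survival was measured after 24 h from cellular ATP (CellTiter-Glo), relative to DMSO, with zVAD at 20 μM as rescue control. Data are duplicate means, some estimated from preliminary results.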
`CS(=O)(=O)c1nc(-c2ccc(=O)n(Cc3ccc(-c4ccccc4)cc3)c2)cc(C(F)(F)F)n1` [Compound 131, 1-([1,1′-biphenyl]-4-ylmethyl)-5-(2-(methylsulfonyl)-6-(trifluoromethyl)pyrimidin-4-yl)pyridin-2 (1H)-one]: the EC50 fell in the range of 1 to 1000 nM.

With `CS(=O)(=O)c1nc(-c2ccc(=O)n(Cc3ccc(-n4cccn4)cc3)c2)cc(C(F)(F)F)n1` [Compound 132, 1-(4-(1H-pyrazol-1-yl)benzyl)-5-(2-(methylsulfonyl)-6-(trifluoromethyl)pyrimidin-4-yl)pyridin-2 (1H)-one], the EC50 is 1 to 1000 nM.

For the compound `CS(=O)(=O)c1nc(-c2ccc(=O)n(Cc3cccc4ccccc34)c2)cc(C(F)(F)F)n1` [Compound 133, 5-(2-(methylsulfonyl)-6-(trifluoromethyl)pyrimidin-4-yl)-1-(naphthalen-1-ylmethyl)pyridin-2 (1H)-one], the EC50 was 1000 to 10000 nM.

`CS(=O)(=O)c1nc(-c2ccc(=O)n(Cc3ccc4ccccc4c3)c2)cc(C(F)(F)F)n1` [Compound 134, 5-(2-(methylsulfonyl)-6-(trifluoromethyl)pyrimidin-4-yl)-1-(naphthalen-2-ylmethyl)pyridin-2 (1H)-one]: the EC50 was 1000 to 10000 nM.

For `COc1cc(Cn2cc(-c3cc(C(F)(F)F)nc(S(C)(=O)=O)n3)ccc2=O)ccn1` [Compound 135, 1-((2-methoxypyridin-4-yl)methyl)-5-(2-(methylsulfonyl)-6-(trifluoromethyl)pyrimidin-4-yl)pyridin-2 (1H)-one], the EC50 lay in the range of 1 to 1000 nM.

As for `CS(=O)(=O)c1nc(-c2ccc(=O)n(Cc3ccc4c(c3)OCO4)c2)cc(C(F)(F)F)n1` [Compound 136, 1-(benzo[d][1,3]dioxol-5-ylmethyl)-5-(2-(methylsulfonyl)-6-(trifluoromethyl)pyrimidin-4-yl)pyridin-2 (1H)-one], the half-maximal effective concentration (EC50) was 1 to 1000 nM.

As to `CS(=O)(=O)c1nc(-c2ccc(=O)n(Cc3ccc4c(c3Br)OCO4)c2)cc(C(F)(F)F)n1` [Compound 137, 1-((4-bromobenzo[d][1,3]dioxol-5-yl)methyl)-5-(2-(methylsulfonyl)-6-(trifluoromethyl)pyrimidin-4-yl)pyridin-2 (1H)-one], the EC50 fell in the range of 1 to 1000 nM.

For the compound `C[S+]([O-])c1nc(-c2ccc(=O)n(Cc3ccc4c(c3Br)OCO4)c2)cc(C(F)(F)F)n1` (centres unmarked) [Compound 138, 1-((4-bromobenzo[d][1,3]dioxol-5-yl)methyl)-5-(2-(methylsulfinyl)-6-(trifluoromethyl)pyrimidin-4-yl)pyridin-2 (1H)-one], the EC50 was 1 to 1000 nM.

For `COc1ccc(Cn2cc(-c3cc(-n4cccn4)nc(S(C)(=O)=O)n3)ccc2=O)cc1OC` [Compound 139, 1-(3,4-dimethoxybenzyl)-5-(2-(methylsulfonyl)-6-(1H-pyrazol-1-yl)pyrimidin-4-yl)pyridin-2 (1H)-one], the EC50 was in the range of 1000 to 10000 nM.

In the case of `COc1ccc(Cn2cc(-c3cc(C(F)(F)F)nc(S(=O)(=O)Cc4ccc(-c5ccccc5)cc4)n3)ccc2=O)cc1OC` [Compound 140, 5-(2-(([1,1′-biphenyl]-4-ylmethyl)sulfonyl)-6-(trifluoromethyl)pyrimidin-4-yl)-1-(3,4-dimethoxybenzyl)pyridin-2 (1H)-one], the EC50 lay in the range of 1 to 1000 nM.

In the case of `C#CCCS(=O)(=O)c1nc(-c2ccc(=O)n(Cc3ccc(OC)c(OC)c3)c2)cc(C(F)(F)F)n1` [Compound 141, 5-(2-(but-3-yn-1-ylsulfonyl)-6-(trifluoromethyl)pyrimidin-4-yl)-1-(3,4-dimethoxybenzyl)pyridin-2 (1H)-one], the EC50 was 1 to 1000 nM.

Consider `C=CS(=O)(=O)c1nc(-c2ccc(=O)n(Cc3ccc(OC)c(OC)c3)c2)cc(C(F)(F)F)n1` [Compound 142, 1-(3,4-dimethoxybenzyl)-5-(6-(trifluoromethyl)-2-(vinylsulfonyl)pyrimidin-4-yl)pyridin-2 (1H)-one], for which the EC50 fell in the range of 1000 to 10000 nM.

For `COCCS(=O)(=O)c1nc(-c2ccc(=O)n(Cc3ccc(OC)c(OC)c3)c2)cc(C(F)(F)F)n1` [Compound 143], the concentration for a half-maximal effect (EC50) was 1 to 1000 nM.

For `COCCCS(=O)(=O)c1nc(-c2ccc(=O)n(Cc3ccc(OC)c(OC)c3)c2)cc(C(F)(F)F)n1` [Compound 144, 1-(3,4-dimethoxybenzyl)-5-(2-((3-methoxypropyl)sulfonyl)-6-(trifluoromethyl)pyrimidin-4-yl)pyridin-2 (1H)-one], the EC50 is 1 to 1000 nM.

For `COCCOCCS(=O)(=O)c1nc(-c2ccc(=O)n(Cc3ccc(OC)c(OC)c3)c2)cc(C(F)(F)F)n1` [Compound 145], the EC50 lay in the range of 1 to 1000 nM.

Turning to `CCCCCCCS(=O)(=O)c1nc(-c2ccc(=O)n(Cc3ccc(OC)c(OC)c3)c2)cc(C(F)(F)F)n1` [Compound 146, 1-(3,4-dimethoxybenzyl)-5-(2-(heptylsulfonyl)-6-(trifluoromethyl)pyrimidin-4-yl)pyridin-2 (1H)-one], the concentration for a half-maximal effect (EC50) was 1 to 1000 nM.

For the compound `CCCCCS(=O)(=O)c1nc(-c2ccc(=O)n(Cc3ccc(OC)c(OC)c3)c2)cc(C(F)(F)F)n1` [Compound 147, 1-(3,4-dimethoxybenzyl)-5-(2-(pentylsulfonyl)-6-(trifluoromethyl)pyrimidin-4-yl)pyridin-2 (1H)-one], the concentration for a half-maximal effect (EC50) fell in the range of 1 to 1000 nM.

With `COc1ccc(Cn2cc(-c3cc(C(F)(F)F)nc(S(=O)(=O)CCC(=O)N(C)C)n3)ccc2=O)cc1OC` [Compound 149, 3-((4-(1-(3,4-dimethoxybenzyl)-6-oxo-1,6-dihydropyridin-3-yl)-6-(trifluoromethyl)pyrimidin-2-yl)sulfonyl)-N,N-dimethylpropanamide], the EC50 is 1 to 1000 nM.

`COc1ccc(Cn2cc(-c3cc(C(F)(F)F)nc(S(=O)(=O)CCC(=O)N4CCCC4)n3)ccc2=O)cc1OC` [Compound 150, 1-(3,4-dimethoxybenzyl)-5-(2-((3-oxo-3-(pyrrolidin-1-yl)propyl)sulfonyl)-6-(trifluoromethyl)pyrimidin-4-yl)pyridin-2 (1H)-one]: the EC50 fell in the range of 1 to 1000 nM.

`COc1ccc(Cn2cc(-c3cc(C(F)(F)F)nc(S(=O)(=O)CCCC(=O)N(C)C)n3)ccc2=O)cc1OC` [Compound 151, 4-((4-(1-(3,4-dimethoxybenzyl)-6-oxo-1,6-dihydropyridin-3-yl)-6-(trifluoromethyl)pyrimidin-2-yl)sulfonyl)-N,N-dimethylbutanamide]: the EC50 was 1 to 1000 nM.

With `COc1ccc(Cn2cc(-c3cc(C(F)(F)F)nc(S(=O)(=O)CCCC(=O)N4CCCC4)n3)ccc2=O)cc1OC` [Compound 152, 1-(3,4-dimethoxybenzyl)-5-(2-((4-oxo-4-(pyrrolidin-1-yl)butyl)sulfonyl)-6-(trifluoromethyl)pyrimidin-4-yl)pyridin-2 (1H)-one], the EC50 lay in the range of 1 to 1000 nM.

For `COc1ccc(Cn2cc(-c3cc(C(F)(F)F)nc(S(=O)(=O)CCC(=O)N4CCCCC4)n3)ccc2=O)cc1OC` [Compound 153, 1-(3,4-dimethoxybenzyl)-5-(2-((3-oxo-3-(piperidin-1-yl)propyl)sulfonyl)-6-(trifluoromethyl)pyrimidin-4-yl)pyridin-2 (1H)-one], the half-maximal effective concentration (EC50) fell in the range of 1 to 1000 nM.

For the compound `COc1cc(Cl)c(Cn2cc(-c3cc(C(F)(F)F)nc(S(=O)(=O)CCC(=O)N4CCCCC4)n3)ccc2=O)cc1OC` [Compound 154, 1-(2-chloro-4,5-dimethoxybenzyl)-5-(2-((3-oxo-3-(piperidin-1-yl)propyl)sulfonyl)-6-(trifluoromethyl)pyrimidin-4-yl)pyridin-2 (1H)-one], the EC50 lay in the range of 1 to 1000 nM.

What is called EC50 is the concentration giving half of the maximal effect.

These data come from patent publication US11725000B2, “Apoptosis inhibitors” (National Institute of Biological Sciences, Beijing, priority 2017, dated 2023).
